Measured values published in patent US20130225629A1, “TARGETING PI3K/MTOR SIGNALLING AND NEUTROPHIL RECRUITMENT FOR TREATMENT OF ENTERITIS” (THE UNIVERSITY OF NORTH CAROLINA AT CHAPEL HILL, priority 2012, published 2013).

Columns and labels:
Cxcl2 mRNA = test: Real-time RT-PCR of colonic Cxcl2 mRNA; format: in vivo, mice
Protocol: (§1) Total RNA from colonic tissue was extracted using TRIzol® kit (Invitrogen, Carlsbad, Calif., United States of America). Complementary DNA was prepared using M-MLV (Invitrogen). Messenger RNA levels of proinflammatory genes were determined using SYBR® Green PCR Master Mix (Applied Biosystems, Carlsbad, Calif., United States of America) on an ABI 7900HT Fast Real-Time PCR System and normalized to Gapdh. The polymerase chain reactions were performed according to the manufacturer's recommendation. The following gene primers were used: Gapdh_forward: 5′-[…]-3′ (SEQ ID NO: 2), Gapdh_reverse: 5′-[…]-3′ (SEQ ID NO: 3), II-1_forward: 5′-[…]-3′ (SEQ ID NO: 4), II-1_reverse: 5′-[…]-3′ (SEQ ID NO: 5), Cxcl2_forward: 5′-[…]-3′ (SEQ ID NO: 6), Cxcl2_reverse: 5′-[…]-3′ (SEQ ID NO: 7), II-17a_forward: 5′-[…]-3′ (SEQ ID NO: 8), II-17a_reverse: 5′-[…]-3′ (SEQ ID NO: 9), II12p40_forward: […] (SEQ ID NO: 10), II12p40_reverse: […] (SEQ ID NO: 11), Tnf forward: […] (SEQ ID NO: 12), Tnf reverse: […] (SEQ ID NO: 13).
(§2) Total RNA from intestinal tissues was extracted using TRIzol® kit (Invitrogen, Carlsbad, Calif., United States of America) following the manufacture's guide. cDNA was reverse-transcribed using M-MLV (Invitrogen). Proinflammatory 111β, Cxcl2, II17a and Tnfα mRNA expression levels were measured using SYBR® Green PCR Master mix (Applied Biosystems, Carlsbad, Calif., United States of America) on an ABI 7900HT Fast Real-Time PCR System and normalized to Gapdh. The PCR primers used were reported previously. (Sun et al., 2012). The PCR reactions were performed for 40 cycles according to the manufacturer's recommendation, and RNA fold changes were calculated using the ΔΔct method.

C. jejuni = format: in vivo, mice; conditions: colon, rapamycin treatment vs infected untreated mice
Source text: All animal protocols were approved by the Institutional Animal Care and Use Committee of the University of North Carolina at Chapel Hill (Chapel Hill, N.C., United States of America). Germ-free 8 to 12 week old II10^−/−; NF-κBEGFP (129/SvEv; C57BL/6 mixed background) mice were transferred from germ-free isolators and immediately gavaged with 10^9 C. jejuni cfu/mouse (strain 81-176 (Korlath et al., 1985)). Mice were then housed under Specific Pathogen-Free (SPF) conditions and sacrificed at 5 or 12 days. Germ-free II10^−/−; NF-κB^EGFP mice were also gavaged with 10^7 Salmonella typhimurium (S. typhimurium strain CA32) cfu/mouse for 2 days or 10^7 Escherichia coli (E. coli strain NC 101) cfu/mouse for 12 days. Conventionally-derived II10^−/−; NF-κB^EGFP mice were put on an antibiotic cocktail (streptomycin 2 g/L, gentamycin 0.5 g/L, bacteriocin 1 g/L and ciprofloxacin 0.125 g/L) in water for 7 days and antibiotics withdrawn 24 hours prior to infection. The mice were then gavaged with 10^9 C. jejuni cfu/mouse for 14 days. To inhibit mTOR signaling, mice were injected daily intraperitoneally (i.p.) with rapamycin (1.5 mg/kg) (Fisher Scientific, Hampton, N.H., United States of America). At the end of the experiment, mice were euthanized using CO2 intoxication. Colon, mesenteric lymph nodes (MLN) and spleen were collected for further processing RNA, protein or C. jejuni culture on Campylobacter selective blood plates (Remel, Thermo Scientific, Hampton, N.H., United States of America) for 48 h at 37° C. using the GasPak system (Becton Dickinson, Franklin Lakes, N.J., United States of America). […] Colons were fixed in 10% buffered formalin (Fisher Scientific, Hampton, N.H., United States of America) overnight, paraffin-embedded, sectioned, and stained with H&E for histological evaluation. Images were acquired using a DP71 camera and DP Controller 3.1.1.276 (Olympus, Center Valley, Pa., United States of America). Intestinal inflammation was scored by evaluating the degree of lamina propria immune cell infiltration, goblet cell depletion, architectural distortion, as well as crypt hyperplasia, ulceration, and abscesses using a score from 0-4. (Lippert et al., 2009). Cecal and colonic inflammation induced by S. typhimurium was evaluated using a score from 0-13 as described. (Hapfelmeier et al., 2005).
MLN and spleen were aseptically resected. Colon tissue was opened, resected and washed three times in sterile PBS. […] C. jejuni colonies were counted and data presented as colony forming unit (cfu)/g tissue.

II-12p40 mRNA = test: Real-time RT-PCR of colonic II-12p40 mRNA; format: in vivo, mice; conditions: rapamycin treatment
Protocol: as §1

Gr-1+/CD45+ cells = test: Flow cytometry of peripheral blood neutrophils (Gr-1+/CD45+); format: in vivo; conditions: rapamycin-treated infected vs untreated infected mice
Protocol: To assess blood neutrophils, mice were sacrificed and peripheral blood was drawn and mixed with an anticoagulant (20 μL 96 mmol/L EDTA). White blood cells were collected following erythrocyte lysis. The cells were then incubated with antibodies against CD45 (PE conjugated), Gr-1 (fluorescein isothiocyanate conjugated) (eBiosciences, San Diego, Calif., United States of America). To analyze the change of CD4^+ cells after antibody-mediated depletion, freshly isolated splenocytes and MLNs from C jejuni-infected mice were then incubated with PE-conjugated antibodies against CD4 (eBiosciences, San Diego, Calif., United States of America). The cells were analyzed on a Cyan flow cytometer (Beckman Coulter, Inc., Brea, Calif., United States of America) to determine the proportion of total immune cells, neutrophils, or CD4^+ T cells, respectively. The results were then analyzed on Summit software (Beckman Coulter, Inc., Brea, Calif., United States of America).

IL-1β = test: ELISA of IL-1β secreted from cultured colon explants and MLN; format: in vivo; conditions: rapamycin-treated infected mice vs control
Protocol: (§3) Colonic tissue, MLNs, and spleen were weighed, minced with scissors, and incubated in 1 mL 3% fetal bovine serum and 1% antibiotics RPMI medium in a 24-well plate. After 18-hour incubation, medium was collected and centrifuged at 7000 rpm for 5 minutes. Supernatant was collected and stored at −80° C. IL-1β and IL-17 (A) concentrations were assessed by enzyme-linked immunosorbent assay kits (R&D Systems, Minneapolis, Minn., United States of America) following the manufacturer's specification. The IL-17 enzyme-linked immunosorbent assay has no cross-reactivity to IL-17B, C, D, E, and F.

II-17a mRNA = test: Real-time RT-PCR of colonic II-17a mRNA; format: in vivo, mice
Protocol: as §1, §2

Tnfα mRNA = test: Real-time RT-PCR of colonic Tnfα mRNA; format: in vivo, mice; conditions: rapamycin treatment
Protocol: as §1

II1β mRNA = test: Real-time RT-PCR of colonic II1β mRNA; format: in vivo, mice
Protocol: as §1, §2

IL-17 = test: ELISA of IL-17 secreted from cultured colon explants and MLN; format: in vivo; conditions: rapamycin-treated infected mice vs control
Protocol: as §3

[1] = colon, rapamycin-treated, C. jejuni-infected mice
[2] = supernatant of cultured colon explants
[3] = wortmannin vs vehicle-treated infected mice

| SMILES | attenuation of C. jejuni induced Cxcl2 mRNA accumulation (Cxcl2 mRNA; [1]) [%] | reduction of C. jejuni colonic invasion (culture count) (C. jejuni) [%] | C. jejuni-induced colonic II-12p40 mRNA accumulation (II-12p40 mRNA) | decrease of ratio of Gr-1+/CD45+ cells in the blood (Gr-1+/CD45+ cells) [%] | reduction of IL-1β production (IL-1β; MLN) [%] | reduction of IL-1β production (IL-1β; [2]) [%] | attenuation of C. jejuni induced II-17a mRNA accumulation (II-17a mRNA; [1]) [%] | C. jejuni-induced colonic Tnfα mRNA accumulation (Tnfα mRNA) | attenuation of C. jejuni induced I1-1β mRNA accumulation (II1β mRNA; [1]) [%] | attenuation of IL-17 production (IL-17; MLN) [%] | reduction of secreted IL-17 (IL-17; [2]) [%] | block of C. jejuni-induced Cxcl2 mRNA accumulation (Cxcl2 mRNA; [3]) [%] | block of C. jejuni-induced II17a mRNA accumulation (II-17a mRNA; [3]) [%] | block of C. jejuni-induced I11β mRNA accumulation (II1β mRNA; [3]) [%] |
| --- | --- | --- | --- | --- | --- | --- | --- | --- | --- | --- | --- | --- | --- | --- |
| CO[C@H]1C[C@@H]2CC[C@@H](C)[C@@](O)(O2)C(=O)C(=O)N2CCCC[C@H]2C(=O)O[C@H]([C@H](C)C[C@@H]2CC[C@@H](O)[C@H](OC)C2)CC(=O)[C@H](C)/C=C(\C)[C@@H](O)[C@@H](OC)C(=O)[C@H](C)C[C@H](C)/C=C/C=C/C=C/1C [rapamycin] | 75 | 90 | not significantly inhibited | 41 | 41 | 59 | 92 | not significantly inhibited | 79 | 82 | 94 |  |  |  |
| COC[C@H]1OC(=O)c2coc3c2[C@@]1(C)C1=C(C3=O)[C@@H]2CCC(=O)[C@@]2(C)C[C@H]1OC(C)=O [wortmannin] |  |  |  |  |  |  |  |  |  |  |  | 77 | 78 | 50 |
